Assay results from patent US6906098B2, “Mixed steroidal 1,2,4,5-tetraoxane compounds and methods of making and using thereof” (priority 2002, dated 2005).
In brackets after ≈: the same amount, converted by molar mass. Several values for one entry are separate records, joined by “and”; a condition that tells them apart may be missing. Identical values can stand only once. Like-named read-outs stand apart in the source and are kept apart here.

Key:
[1] = test system: Plasmodium falciparum chloroquine-resistant strain W2; assay: microbe, parasite or virus in culture; format: cell-based; details: for IC50: Plasmodium falciparum, W2, 66 h, read-out: Strain W2 IC50, growth inhibition, chloroquine-resistant strain W2, 66 h incubation; for Strain W2 IC50: growth inhibition, chloroquine-resistant strain W2, 66 h incubation
[2] = test system: Plasmodium falciparum chloroquine-susceptible strain D6; assay: In vitro antimalarial drug susceptibility assay (radiolabeled hypoxanthine incorporation), strain D6; format: cell-based; details: for IC50: Plasmodium falciparum, D6, 66 h, read-out: Strain D6 IC50, growth inhibition, chloroquine-susceptible strain D6, 66 h incubation; for Strain D6 IC50: growth inhibition, chloroquine-susceptible strain D6, 66 h incubation
[3] = test system: Mycobacterium tuberculosis H37Rv (ATCC 27294); assay: Primary screen, Microplate Alamar Blue Assay (MABA), percent inhibition; format: cell-based; details: Table 5, Alamar assay, primary screening at 6.25 μg/ml; for inhibition at 6.25 µg/mL: Mycobacterium tuberculosis, read-out: % Inhib
Procedure, shortened: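 Single-concentration screen at 6.25 μg/ml (or molar equivalent of the heaviest congener in a series) against H37Rv grown in BACTEC 12B medium. Growth read by Microplate Alamar Blue Assay, reported as percent inhibition.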

[4] = test system: D6 and W2 P. falciparum clones; format: cell-based, Plasmodium falciparum; details: IC50 (W2)/IC50 (D6) ratio
[5] = test system: VERO cells
[6] = test system: M. tuberculosis H37Rv; assay: Minimum inhibitory concentration (MIC) in the MABA; format: cell-based, Mycobacterium tuberculosis
Procedure, shortened: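 Run under the NIAID TAACF screening program against M. tuberculosis by fluorescence read-out. MIC taken as the lowest concentration giving 90% reduction in fluorescence relative to controls.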

[7] = test system: VERO cells; assay: cells; details: Chlorocebus sabaeus, Table 5
[8] = ratio of IC50 in VERO cells to MIC (M. tuberculosis H37Rv)
[9] = Mycobacterium tuberculosis, H37RV, Table 5, Alamar assay, M. tuberculosis H37Rv, read-out: MIC
[10] = Table 5, Alamar assay, M. tuberculosis H37Rv

SMILES	IC50 [1] [mg/L]	IC50 [2] [mg/L]	inhibition at 6.25 µg/mL [3] [%]	Resistance Index [4]	SI (selectivity index) [5, 8]	MIC [6, 9] [mg/L]	IC50 [7] [mg/L]	SI (selectivity index) [5]	MIC ([6]; Mycobacterium tuberculosis, H37RV, Table 3, H37Rv, read-out: MIC)	Strain W2 IC50 [1] [mg/L]	Strain D6 IC50 [2] [mg/L]	% Inhib [3] [%]	Resistance Index ([4]; listed as 12)	MIC [6, 10] [mg/L]	IC50 ([5]; Table 5, VERO cells) [mg/L]
CCNC(=O)CCC(C)[C@H]1CCC2C3C(C[C@H](OC(C)=O)[C@@]21C)[C@@]1(C)CCC2(C[C@H]1C[C@H]3OC(C)=O)OOC1(CCCCC1C)OO2 (stereo partly drawn) [15/1C24, N-Ethyl-7α,12α-diacetoxy-5β-cholan-24-amide-3-spiro-6′-(1′,2′,4′,5′-tetraoxacyclohexane)-3′-spiro-1″-(2″-methyl)cyclohexane]	0.00461 (≈ 0.00697 µM)	0.00837 (≈ 0.0126 µM)	98	0.55	2.24	3.13 (≈ 4.73 µM)	7.02 (≈ 10.6 µM)	–	–	–	–	–	–	–	–
NNC(=O)c1ccncc1 [Isoniazid, reference compound]	–	–	–	–	–	0.025 to 0.05 (≈ 0.182 to 0.365 µM)	> 1000	> 40,000	0.05 µg/mL and 0.36 µM	–	–	–	–	–	–
CCCNC(=O)CCC(C)[C@H]1CCC2C3C(C[C@H](OC(C)=O)[C@@]21C)[C@@]1(C)CCC2(C[C@H]1C[C@H]3OC(C)=O)OOC1(CCC(CC)CC1)OO2 (single isomer, unassigned) [28/1C38, N-(n-Propyl)-7α,12α-Diacetoxy-5β-cholan-24-amide-3-spiro-6′-(1′,2′,4′,5′-tetraoxacyclohexane)-3′-spiro-1″-((4″R or S)-ethyl)cyclohexane]	–	–	–	0.54	0.36	6.25 (≈ 9.06 µM)	2.28 (≈ 3.3 µM)	–	–	0.00312	0.00576	92	–	–	–
CCC1CCC2(CC1)OOC1(CC[C@]3(C)C4C[C@H](OC(C)=O)[C@@]5(C)C(CC[C@@H]5C(C)CCC(N)=O)C4[C@H](OC(C)=O)C[C@@H]3C1)OO2 (single isomer, unassigned) [25/1C35, 7α,12α-Diacetoxy-5β-cholan-24-amide-3-spiro-6′-(1′,2′,4′,5′-tetraoxacyclohexane)-3′-spiro-1″-((4″R or S)-ethyl)cyclohexane]	0.00693 (≈ 0.0107 µM)	–	100	1.27	1.48	3.13 (≈ 4.83 µM)	4.65 (≈ 7.18 µM)	–	–	–	0.00544	–	–	–	–
COC(=O)CNC(=O)CCC(C)[C@H]1CCC2C3C(C[C@H](OC(C)=O)[C@@]21C)[C@@]1(C)CCC2(C[C@H]1C[C@H]3OC(C)=O)OOC1(CCCCC1)OO2 (stereo partly drawn) [12/1C21, N-(Methyl ethanoate-2-yl)-7α,12α-diacetoxy-5β-cholan-24-amide-3-spiro-6′-(1′,2′,4′,5′-tetraoxacyclohexane)-3′-spirocyclohexane]	0.00745 (≈ 0.0108 µM)	0.0152 (≈ 0.022 µM)	99	0.49	0.87	6.25 (≈ 9.03 µM)	5.42 (≈ 7.83 µM)	–	–	–	–	–	ca. 0.5	–	–
CCC1CCC2(CC1)OOC1(CC[C@]3(C)C4C[C@H](OC(C)=O)[C@@]5(C)C(CC[C@@H]5C(C)CCC(=O)NC)C4[C@H](OC(C)=O)C[C@@H]3C1)OO2 (single isomer, unassigned) [26/1C36, N-Methyl-7α,12α-Diacetoxy-5β-cholan-24-amide-3-spiro-6′-(1′,2′,4′,5′-tetraoxacyclohexane)-3′-spiro-1″-((4″R or S)-ethyl)cyclohexane]	0.00517 (≈ 0.00781 µM)	–	99	1.08	1.17	–	1.83 (≈ 2.76 µM)	–	–	–	0.00477	–	–	1.56 (≈ 2.36 µM)	–
CCNC(=O)CCC(C)[C@H]1CCC2C3C(C[C@H](OC(C)=O)[C@@]21C)[C@@]1(C)CCC2(C[C@H]1C[C@H]3OC(C)=O)OOC1(CCC(CC)CC1)OO2 (single isomer, unassigned) [27/1C37, N-Ethyl-7α,12α-Diacetoxy-5β-cholan-24-amide-3-spiro-6′-(1′,2′,4′,5′-tetraoxacyclohexane)-3′-spiro-1″-((4″R or S)-ethyl)cyclohexane]	0.00646 (≈ 0.00956 µM)	0.0134 (≈ 0.0198 µM)	96	0.48	1.22	–	1.91 (≈ 2.83 µM)	–	–	–	–	–	–	1.56 (≈ 2.31 µM)	–
CNC(=O)CCC(C)[C@H]1CCC2C3C(C[C@H](OC(C)=O)[C@@]21C)[C@@]1(C)CCC2(C[C@H]1C[C@H]3OC(C)=O)OOC1(CCC(C)CC1)OO2 (stereo partly drawn) [22/1C31, N-Methyl-7α,12α-diacetoxy-5β-cholan-24-amide-3-spiro-6′-(1′,2′,4′,5′-tetraoxacyclohexane)-3′-spiro-1″-((4″S)-methyl)cyclohexane]	–	–	–	0.71	0.29	–	–	–	–	0.00769	0.01079	99	–	6.25 (≈ 9.65 µM)	1.83 (≈ 2.82 µM)
CCC1CCC2(CC1)OOC1(CC[C@]3(C)C4C[C@H](OC(C)=O)[C@@]5(C)C(CC[C@@H]5C(C)CCC(=O)O)C4[C@H](OC(C)=O)C[C@@H]3C1)OO2 (single isomer, unassigned) [9j/1C39, 7α,12α-Diacetoxy-5β-cholan-24-oic acid-3-spiro-6′-(1′,2′,4′,5′-tetraoxacyclohexane)-3′-spiro-1″-((4″S or R)-ethyl)cyclohexane]	–	–	–	1.47	0.15	–	0.95 (≈ 1.46 µM)	–	–	0.00936	0.00638	95	–	6.25 (≈ 9.63 µM)	–
CNC(=O)CCC(C)[C@H]1CCC2C3C(C[C@H](OC(C)=O)[C@@]21C)[C@@]1(C)CCC2(C[C@H]1C[C@H]3OC(C)=O)OOC1(CCCCC1C)OO2 (stereo partly drawn) [14/1C23, N-Methyl-7α,12α-diacetoxy-5β-cholan-24-amide-3-spiro-6′-(1′,2′,4′,5′-tetraoxacyclohexane)-3′-spiro-1″-(2″-methyl)cyclohexane]	0.00649 (≈ 0.01 µM)	0.0102 (≈ 0.0158 µM)	99	0.64	1.8	3.13 (≈ 4.83 µM)	5.63 (≈ 8.69 µM)	–	–	–	–	–	–	–	–
CC(=O)O[C@H]1CC2C(C3CC[C@H](C(C)CCC(N)=O)[C@]31C)[C@H](OC(C)=O)C[C@@H]1CC3(CC[C@]21C)OOC1(CCCCC1)OO3 (stereo partly drawn) [10/1C19, 7α,12α-Diacetoxy-5β-cholan-24-amide-3-spiro-6′-(1′,2′,4′,5′-tetraoxacyclohexane)-3′-spirocyclohexane]	0.00294 (≈ 0.00474 µM)	0.00733 (≈ 0.0118 µM)	99	0.40	0.79	6.25 (≈ 10.1 µM)	4.94 (≈ 7.97 µM)	–	–	–	–	–	–	–	–
